Test system: H9 embryonic stem cells
Test: Microarray analysis of definitive endoderm stage cells on […] or MEFs +/- Wnt-3a (Table VI)
Assay type: cell-based, human
Conditions: low serum
Protocol: Controls for each group included cells plated on [sequence]—coated dishes and cultured in MEF-conditioned medium or cells plated on MEFs and cultured in ES medium. All groups contained three biological replicates and each biological replicate was repeated on two separate gene chips.
Sample preparation, hybridization, and image analysis were performed according to the Affymetrix Human Genome U133 Plus 2.0 Array. Following normalization and a log transformation, data analysis was performed using OmniViz® software (MA) and [sequence] […] Significant differences in gene expression between the samples were evaluated using analysis of variance and an F-test with adjusted P-value (Benjamini and Hochberg correction) of less-than or equal to 0.05. Only genes with a present call in at least one group were included in the analysis.

Substance: Activin A: activin A (a member of the TGFβ superfamily), R&D Systems; 'w/o wnt' in Table VII = 100 ng/ml Activin A without Wnt3a
- Intensity (log): neuropilin 1 (on MATRIGEL): −1.623
- Intensity (log): noggin (on MATRIGEL): −1.636
- Intensity (log): splicing factor, arginine serine-rich 5 (on MATRIGEL): 0.7481
- Intensity (log): stanniocalcin 1 (on MATRIGEL): 2.411
- Intensity (log): ESTs (on MATRIGEL, r13): −4.827
- Intensity (log): ESTs (on MATRIGEL, r16): −3.437
- Intensity (log): solute carrier family 16 (monocarboxylic acid transporters), member 3 (on MATRIGEL, r20): −0.06641
- Intensity (log): Homo sapiens solute carrier family 16 (monocarboxylic acid transporters), member 3 (SLC16A3), mRNA (on MATRIGEL, r30): 0.7103
- Intensity (log): ESTs (on MATRIGEL, r49): −0.04716
- Intensity (log): glycophorin B (includes Ss blood group) (on MATRIGEL, r50): −2.852
- Intensity (log): ESTs (on MATRIGEL, r62): −4.936
- Intensity (log): Homo sapiens HNF-3beta mRNA for hepatocyte nuclear factor-3 beta, complete cds (on MATRIGEL, r66): −2.718
- Intensity (log): ESTs (on MATRIGEL, r81): −2.336
- Intensity (log): ESTs (on MATRIGEL, r92): −2.896
- Intensity (log): ESTs (on MATRIGEL, r98): −3.098
- Intensity (log): ESTs (on MATRIGEL, r108): −1.401
- Intensity (log): Homo sapiens phorbolin-like protein MDS019 (MDS019), mRNA (on MATRIGEL, r121): −1.119
- Intensity (log): ESTs (on MATRIGEL, r129): −1.555
- Intensity (log): ESTs (on MATRIGEL, r136): −0.7315
- Intensity (log): ESTs (on MATRIGEL, r137): −2.036
- Intensity (log): ESTs (on MATRIGEL, r142): −0.6486
- Intensity (log): ESTs (on MATRIGEL, r145): −1.782
- Intensity (log): Cluster Incl. AB028021: Homo sapiens HNF-3beta mRNA for hepatocyte nuclear factor-3 beta, complete cds (on MATRIGEL, r165): −1.5339
- Intensity (log): hypothetical protein FLJ23403 (on MATRIGEL, r205): −1.456
- Intensity (log): matrix metalloproteinase 14 (membrane-inserted) (on MATRIGEL, r215): −2.057
- Intensity (log): Homo sapiens glycophorin B (includes Ss blood group) (GYPB), mRNA (on MATRIGEL, r218): −0.9473
- Intensity (log): ESTs (on MATRIGEL, r234): 0.8128
- Intensity (log): ESTs (on MATRIGEL, r240): 1.068
- Intensity (log): ESTs (on MATRIGEL, r241): −1.412
- Intensity (log): KIAA0878 protein (on MATRIGEL, r250): 1.1189
- Intensity (log): ESTs (on MATRIGEL, r260): 1.481
- Intensity (log): Homo sapiens matrix metalloproteinase 14 (membrane-inserted) (MMP14), mRNA (on MATRIGEL, r270): −0.7235
- Intensity (log): ESTs (on MATRIGEL, r278): 0.5216
- Intensity (log): ESTs (on MATRIGEL, r290): 0.3072
- Intensity (log): ESTs (on MATRIGEL, r301): −3.574
- Intensity (log): ESTs (on MATRIGEL, r314): −0.05909
- Intensity (log): Homo sapiens hypothetical protein FLJ23403 (FLJ23403), mRNA (on MATRIGEL, r315): −1.485
- Intensity (log): ESTs (on MATRIGEL, r319): −0.1824
- Intensity (log): Homo sapiens KIAA0878 protein (KIAA0878), mRNA (on MATRIGEL, r332): 2.0265
- Intensity (log): phorbolin-like protein MDS019 (on MATRIGEL, r340): −1.118
- Intensity (log): ESTs (on MATRIGEL, r347): 0.3539
- Intensity (log): ESTs (on MATRIGEL, r376): −0.3497
- Intensity (log): ESTs (on MATRIGEL, r377): −0.9033
- Intensity (log): 6-phosphofructo-2-kinasefructose-2,6-biphosphatase 4 (on MEFS): 1.6
- Intensity (log): ESTs, Highly similar to IHH_HUMAN INDIAN HEDGEHOG PROTEIN PRECURSOR (H. sapiens) (on MEFS): 0.5905
- Intensity (log): ESTs, Moderately similar to JE0284 Mm-1 cell derived transplantability-associated protein 1b (H. sapiens) (on MEFS): 4.222
- Intensity (log): ESTs, Weakly similar to FCE2 MOUSE LOW AFFINITY IMMUNOGLOBULIN EPSILON FC RECEPTOR (M. musculus) (on MEFS): 3.48
- Intensity (log): ESTs, Weakly similar to the 331st table hypothetical protein KIAA0555 (H. sapiens) (on MEFS): 0.4436
- Intensity (log): G protein-coupled receptor (on MEFS): 5.053
- Intensity (log): G protein-coupled receptor 49 (on MEFS): 2.505
- Intensity (log): Homo sapiens Kell blood group (KEL), mRNA (on MEFS): −0.3839
- Intensity (log): Homo sapiens MLL septin-like fusion (MSF), mRNA (on MEFS): −1.5
- Intensity (log): Homo sapiens Mix-like homeobox protein 1 (MILD1) mRNA, complete cds (on MEFS): 0.922
- Intensity (log): Homo sapiens Rho GTPase activating protein 6 (ARHGAP6), transcript variant 2, mRNA (on MEFS): −1.285
- Intensity (log): Homo sapiens TBX3-iso protein (TBX3-iso), mRNA (on MEFS): 1.07
- Intensity (log): Homo sapiens angiopoietin 2 (ANGPT2), mRNA (on MEFS): 0.5968
- Intensity (log): Homo sapiens ankyrin-like with transmembrane domains 1 (ANKTM1), mRNA (on MEFS): 2.819
- Intensity (log): Homo sapiens apolipoprotein A-I (APOA1), mRNA (on MEFS): 2.469
- Intensity (log): Homo sapiens apolipoprotein A-II (APOA2), mRNA (on MEFS): 4.469
- Intensity (log): Homo sapiens arylsulfatase E (chondrodysplasia punctata 1) (ARSE), mRNA (on MEFS): 3.184
- Intensity (log): Homo sapiens atrophin-1 interacting protein 1; activin receptor interacting protein 1 (KIAA0705), mRNA (on MEFS): −1.32
- Intensity (log): Homo sapiens beta-site APP cleaving enzyme (BACE) mRNA, complete cds (on MEFS): 1.754
- Intensity (log): Homo sapiens cDNA FLJ11550 fis, clone HEMBA1002970 (on MEFS): 4.216
- Intensity (log): Homo sapiens cDNA FLJ12993 fis, clone NT2RP3000197 (on MEFS): 2.069
- Intensity (log): Homo sapiens cDNA FLJ13221 fis, clone NT2RP4002075 (on MEFS): 1.31
- Intensity (log): Homo sapiens cardiac ventricular troponin C mRNA, complete cds (on MEFS): 1.4377
- Intensity (log): Homo sapiens cartilage linking protein 1 (CRTL1), mRNA (on MEFS): −0.8052
- Intensity (log): Homo sapiens cell adhesion molecule with homology to L1CAM (close homologue of L1) (CHL1), mRNA (on MEFS): −2.5002
- Intensity (log): Homo sapiens chromosome 19, cosmid R31181 (on MEFS): 0.2239
- Intensity (log): Homo sapiens clone 23736 mRNA sequence (on MEFS): 4.507
- Intensity (log): Homo sapiens cryptic mRNA, complete cds (on MEFS): −0.6735
- Intensity (log): Homo sapiens cystatin S (CST4), mRNA (on MEFS): 3.87
- Intensity (log): Homo sapiens cystatin SA (CST2), mRNA (on MEFS): 2.1671
- Intensity (log): Homo sapiens cystatin SN (CST1), mRNA (on MEFS): 4.64
- Intensity (log): Homo sapiens cytidine deaminase (CDA), mRNA (on MEFS): −1.67
- Intensity (log): Homo sapiens dual specificity phosphatase 4 (DUSP4), mRNA (on MEFS): 4.122
- Intensity (log): Homo sapiens fibroblast growth factor 8 (androgen-induced) (FGF8), mRNA (on MEFS): 0.01583
- Intensity (log): Homo sapiens fibroblast growth factor 17 (FGF17), mRNA (on MEFS): 2.4872
- Intensity (log): Homo sapiens frizzled-related protein (FRZB), mRNA (on MEFS): 3.676
- Intensity (log): Homo sapiens gastrin-releasing peptide (GRP), mRNA (on MEFS): 0.5098
- Intensity (log): Homo sapiens glycophorin E (GYPE), mRNA (on MEFS): −1.501
- Intensity (log): Homo sapiens glycophorin Erik STA (GPErik) gene complete cds (on MEFS): −0.4544
- Intensity (log): Homo sapiens growth differentiation factor 3 (GDF3), mRNA (on MEFS): 2.875
- Intensity (log): Homo sapiens haptoglobin (HP), mRNA (on MEFS): 0.477

From patent publication US9096832B2, “Differentiation of human embryonic stem cells” (LifeScan, Inc., priority 2007, dated 2015)
